In patent US20250041429A1, “COMPOUND HAVING BTK PROTEIN DEGRADATION ACTIVITY, AND MEDICAL USES THEREOF” (UBIX THERAPEUTICS, INC., priority 2021, published 2025):

Molecular target: T1, BTK protein (Homo sapiens, UniProt Q06187)
T1 construct: endogenous in cells; host or cells: TMD-8 cells
Assay: Measurement of BTK protein degradation ability in TMD-8 cells (Western blotting)
Type: cell-based
Conditions: harvested after 24 hours; for BTK degradation (%) 1 nM: compound 1 nM; for BTK degradation (%) 10 nM: compound 10 nM; for BTK degradation (%) 100 nM: compound 100 nM
Method in brief: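 BTK levels were measured by immunoblotting of equal-protein RIPA lysates, normalized to GAPDH or β-actin, with chemiluminescent or infrared detection. Lysates came from TMD-8 cells exposed to compound for 24 h at final concentrations of 0.1, 1, 10 μM or 0.0001–0.1 μM, against a DMSO control.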

T1 sequence (Q06187 whole entry): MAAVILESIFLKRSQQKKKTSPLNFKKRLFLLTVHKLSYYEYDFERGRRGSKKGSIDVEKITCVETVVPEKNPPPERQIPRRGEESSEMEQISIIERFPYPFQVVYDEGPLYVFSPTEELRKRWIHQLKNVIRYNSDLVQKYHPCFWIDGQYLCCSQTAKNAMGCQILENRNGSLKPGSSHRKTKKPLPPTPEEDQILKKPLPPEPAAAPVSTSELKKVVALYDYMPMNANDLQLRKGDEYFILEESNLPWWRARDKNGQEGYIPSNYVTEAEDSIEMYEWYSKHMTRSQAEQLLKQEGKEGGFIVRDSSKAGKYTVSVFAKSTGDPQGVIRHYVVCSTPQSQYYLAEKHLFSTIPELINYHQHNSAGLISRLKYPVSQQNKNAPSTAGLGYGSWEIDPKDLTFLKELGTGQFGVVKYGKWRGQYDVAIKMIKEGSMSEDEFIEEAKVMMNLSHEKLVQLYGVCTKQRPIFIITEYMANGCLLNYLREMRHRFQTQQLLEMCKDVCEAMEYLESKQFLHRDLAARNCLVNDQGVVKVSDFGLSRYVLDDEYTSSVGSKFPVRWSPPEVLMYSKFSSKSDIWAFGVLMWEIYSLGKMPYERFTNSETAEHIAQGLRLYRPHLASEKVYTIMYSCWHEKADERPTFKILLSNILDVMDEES

Row | Structure (SMILES) | BTK degradation (%) 1 nM | BTK degradation (%) 10 nM | BTK degradation (%) 100 nM
1 | Cc1cc(-c2ccnc(Nc3ccc(N4CCC(CN5CCC(c6ccc(NC7CCC(=O)NC7=O)cc6)CC5)CC4)cc3)n2)ccc1CNC(=O)c1cn(C(C)(C)C)nn1 (stereo not drawn) [Example 136, 1-(tert-butyl)-N-(4-(2-((4-(4-((4-(4-((2,6-dioxopiperidin-3-yl)amino)phenyl)piperidin-1-yl)methyl)piperidin-1-yl)phenyl)amino)pyrimidin-4-yl)-2-methylbenzyl)-1H-1,2,3-triazole-4-carboxamide] | 71.0% | 95.5% | 98.5%
2 | Cc1cc(-c2ccnc(Nc3ccc(N4CCC(CN5CCC(c6ccc(NC7CCC(=O)NC7=O)cc6)CC5)CC4)cc3)n2)cnc1CNC(=O)c1cn(C(C)(C)C)nn1 (stereo not drawn) [Example 137, 1-(tert-butyl)-N-((5-(2-((4-(4-((4-(4-((2,6-dioxopiperidin-3-yl)amino)phenyl)piperidin-1-yl)methyl)piperidin-1-yl)phenyl)amino)pyrimidin-4-yl)-3-methylpyridin-2-yl)methyl)-1H-1,2,3-triazole-4-carboxamide] | 25.0% | 81.5% | 97.0%
3 | Cc1cc(-c2ccnc(Nc3ccc(N4CCC(CN5CCC(c6cccc(N7CCC(=O)NC7=O)c6)CC5)CC4)cc3)n2)ccc1CNC(=O)c1cn(C(C)(C)C)nn1 [Example 138, 1-(tert-butyl)-N-(4-(2-((4-(4-((4-(3-(2,4-dioxotetrahydropyrimidin-1 (2H)-yl)phenyl)piperidin-1-yl)methyl)piperidin-1-yl)phenyl)amino)pyrimidin-4-yl)-2-methylbenzyl)-1H-1,2,3-triazole-4-carboxamide] | 15.5% | 71.5% | 90.0%
4 | Cc1cc(-c2ccnc(Nc3ccc(N4CCC(CN5CCC(c6ccc(N7CCC(=O)NC7=O)cc6)CC5)CC4)cc3)n2)ccc1CNC(=O)c1cn(C(C)(C)C)nn1 [Example 139, 1-(tert-butyl)-N-(4-(2-((4-(4-((4-(4-(2,4-dioxotetrahydropyrimidin-1 (2H)-yl)phenyl)piperidin-1-yl)methyl)piperidin-1-yl)phenyl)amino)pyrimidin-4-yl)-2-methylbenzyl)-1H-1,2,3-triazole-4-carboxamide] | 15.5% | 68.0% | 95.0%
5 | Cc1cc(-c2ccnc(Nc3ccc(CN4CCC(CN5CCC(c6cccc(N7CCC(=O)NC7=O)c6)CC5)CC4)cc3)n2)ccc1CNC(=O)c1cn(C(C)(C)C)nn1 [Example 140] | 0.5% | 10.5% | 77.0%
6 | Cc1cc(-c2ccnc(Nc3ccc(CN4CCC(CN5CCC(c6ccc(N7CCC(=O)NC7=O)cc6)CC5)CC4)cc3)n2)ccc1CNC(=O)c1cn(C(C)(C)C)nn1 [Example 141, 1-(tert-butyl)-N-(4-(2-((4-((4-((4-(4-(2,4-dioxotetrahydropyrimidin-1 (2H)-yl)phenyl)piperidin-1-yl)methyl)piperidin-1-yl)methyl)phenyl)amino)pyrimidin-4-yl)-2-methylbenzyl)-1H-1,2,3-triazole-4-carboxamide] | 15.0% | 70.5% | 96.5%
7 | Cc1cc(-c2ccnc(Nc3ccc(CN4CCC(CN5CCC(c6ccc(NC7CCC(=O)NC7=O)cc6)CC5)CC4)cc3)n2)ccc1CNC(=O)c1cn(C(C)(C)C)nn1 (stereo not drawn) [Example 142, 1-(tert-butyl)-N-(4-(2-((4-((4-((4-(4-((2,6-dioxopiperidin-3-yl)amino)phenyl)piperidin-1-yl)methyl)piperidin-1-yl)methyl)phenyl)amino)pyrimidin-4-yl)-2-methylbenzyl)-1H-1,2,3-triazole-4-carboxamide] | 44.5% | 88.5% | 99.0%
8 | CC(C)(C)n1cc(C(=O)NCc2ccc(-c3ccnc(Nc4ccc(N5CCC(CN6CCC(c7ccc(NC8CCC(=O)NC8=O)cc7)CC6)CC5)cc4)n3)cc2CO)nn1 (stereo not drawn) [Example 143, 1-(tert-butyl)-N-(4-(2-((4-(4-((4-(4-((2,6-dioxopiperidin-3-yl)amino)phenyl)piperidin-1-yl)methyl)piperidin-1-yl)phenyl)amino)pyrimidin-4-yl)-2-(hydroxymethyl)benzyl)-1H-1,2,3-triazole-4-carbamide] | 74.0% | 99.5% | 100.0%
9 | Cc1cc(-c2ccnc(Nc3ccc(N4CCC(CN5CCC(c6ccc(OC7CCC(=O)NC7=O)cc6)CC5)CC4)nc3)n2)ccc1CNC(=O)N1CC(OC(C)C)C1 (stereo not drawn) [Example 144, N-(4-(2-((6-(4-((4-(4-((2,6-dioxopiperidin-3-yl)oxy)phenyl)piperidin-1-yl)methyl)piperidin-1-yl)pyridin-3-yl)amino)pyrimidin-4-yl)-2-methylbenzyl)-3-isopropoxyazetidine-1-carboxamide] | 28.0% | 77.0% | 98.5%
10 | Cc1cc(-c2ccnc(Nc3ccc(N4CCC(CN5CCC(c6ccc(NC7CCC(=O)NC7=O)cc6)CC5)CC4)nc3)n2)ccc1CNC(=O)N1CC(OC(C)C)C1 (stereo not drawn) [Example 145, N-(4-(2-((6-(4-((4-(4-((2,6-dioxopiperidin-3-yl)amino)phenyl)piperidin-1-yl)methyl)piperidin-1-yl)pyridin-3-yl)amino)pyrimidin-4-yl)-2-methylbenzyl)-3-isopropoxyazetidine-1-carboxamide] | 27.5% | 85.0% | 99.0%
11 | Cc1cc(-c2ccnc(Nc3ccc(N4CCC(CN5CCC(c6ccc(NC7CCC(=O)NC7=O)cc6)CC5)CC4)nc3)n2)ccc1CNC(=O)c1cn(C(C)(C)C)nn1 (stereo not drawn) [Example 146, 1-(tert-butyl)-N-(4-(2-((6-(4-((4-(4-((2,6-dioxopiperidin-3-yl)amino)phenyl)piperidin-1-yl)methyl)piperidin-1-yl)pyridin-3-yl)amino)pyrimidin-4-yl)-2-methylbenzyl)-1H-1,2,3-triazole-4-carboxamide] | 26.5% | 88.0% | 99.0%
